Assay results from US6358885B1, “Substituted phenylheterocyclic herbicides” (Mississippi State University, priority 1992, dated 2002).

Legend:
sorghum = experiment: Test B preemergence/postemergence greenhouse plant response rating 0 to 10; format: in vivo, Sorghum bicolor; details: for Plant response rating, Sorghum: 0 to 10 scale
Outline: (§1)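 Postemergence treatment of plants two to eighteen cm tall ran alongside preemergence treatment of planted seed, each using compound in a non-phytotoxic solvent.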

purple nutsedge = experiment: as above; format: in vivo, Cyperus rotundus; details: for Plant response rating, Nutsedge: 0 to 10 scale
Outline: as §1

crabgrass = experiment: as above; format: in vivo, Digitaria spp.; details: for Plant response rating, Crabgrass: 0 to 10 scale
Outline: as §1

wheat = experiment: as above; format: in vivo, Triticum aestivum; details: for Plant response rating, Wheat: 0 to 10 scale
Outline: as §1

cotton = experiment: Test C preemergence/postemergence greenhouse plant response rating 0 to 100; format: in vivo, Gossypium hirsutum; details: for Plant response rating, Cotton: 125 g/ha, 0 to 100 scale
Outline: (§2)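 Compounds in non-phytotoxic solvent went onto sandy loam before emergence (seeded one day earlier) or onto plants at the one-to-four leaf stage. Duck salad was treated via flood water (~2.5 cm, maintained) over silt loam.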

lambsquarters = experiment: as above; format: in vivo, Chenopodium album; details: for Plant response rating Lambsquarters: 125 g/ha, 0 to 100 scale
Outline: as §2

corn = experiment: Test B preemergence/postemergence greenhouse plant response rating 0 to 10; format: in vivo, Zea mays; details: for Plant response rating, Corn: 0 to 10 scale
Outline: as §1

velvetleaf = experiment: Test C preemergence/postemergence greenhouse plant response rating 0 to 100; format: in vivo, Abutilon theophrasti; details: for Plant response rating, Velvetleaf: 125 g/ha, 0 to 100 scale
Outline: as §2

sugar beet = experiment: Test B preemergence/postemergence greenhouse plant response rating 0 to 10; format: in vivo, Beta vulgaris; details: for Plant response rating, Sugar beet: 0 to 10 scale
Outline: as §1

CCOCOc1cc(-c2nn3c(c2Cl)CCCC3)c(F)cc1Cl [Compound 59]
Plant response rating, Sorghum (sorghum; POSTEMERGENCE, Rate 50 g/ha): 3
Plant response rating, Sorghum (sorghum; PREEMERGENCE, Rate 50 g/ha): 1
Plant response rating (0 to 10 scale), Sorghum (sorghum; PREEMERGENCE, Rate 200 g/ha): 5
Plant response rating, Sorghum (sorghum; Rate 200 g/ha, POSTEMERGENCE): 4
Plant response rating, Nutsedge (purple nutsedge; POSTEMERGENCE, Rate 50 g/ha): 2
Plant response rating, Nutsedge (purple nutsedge; PREEMERGENCE, Rate 50 g/ha): 0
Plant response rating (0 to 10 scale), Nutsedge (purple nutsedge; PREEMERGENCE, Rate 200 g/ha): 0
Plant response rating, Nutsedge (purple nutsedge; Rate 200 g/ha, POSTEMERGENCE): 5
Plant response rating, Crabgrass (crabgrass; POSTEMERGENCE, Rate 50 g/ha): 4
Plant response rating, Crabgrass (crabgrass; PREEMERGENCE, Rate 50 g/ha): 5
Plant response rating (0 to 10 scale), Crabgrass (crabgrass; PREEMERGENCE, Rate 200 g/ha): 10
Plant response rating, Crabgrass (crabgrass; Rate 200 g/ha, POSTEMERGENCE): 5
Plant response rating, Wheat (wheat; POSTEMERGENCE, Rate 50 g/ha): 7
Plant response rating, Wheat (wheat; PREEMERGENCE, Rate 50 g/ha): 4
Plant response rating (0 to 10 scale), Wheat (wheat; PREEMERGENCE, Rate 200 g/ha): 4
Plant response rating, Wheat (wheat; Rate 200 g/ha, POSTEMERGENCE): 6
Plant response rating, Cotton (cotton; POSTEMERGENCE): 100
Plant response rating (0 to 100), Cotton (cotton; POSTEMERGENCE, Rate 2 g/ha): 95
Plant response rating, Cotton (cotton; PREEMERGENCE): 50
Plant response rating (0 to 100), Cotton (cotton; PREEMERGENCE, Rate 2 g/ha): 0
Plant response rating (0 to 100), Cotton (cotton; Rate 8 g/ha, POSTEMERGENCE): 100
Plant response rating (0 to 100), Cotton (cotton; Rate 8 g/ha, PREEMERGENCE): 0
Plant response rating (0 to 100), Cotton (cotton; Rate 31 g/ha, POSTEMERGENCE): 100
Plant response rating (0 to 100), Cotton (cotton; Rate 31 g/ha, PREEMERGENCE): 10
Plant response rating Lambsquarters (lambsquarters; POSTEMERGENCE): 95
Plant response rating (0 to 100), Lambsquarters (lambsquarters; POSTEMERGENCE, Rate 2 g/ha): 30
Plant response rating Lambsquarters (lambsquarters; PREEMERGENCE): 100
Plant response rating (0 to 100), Lambsquarters (lambsquarters; PREEMERGENCE, Rate 2 g/ha): 0
Plant response rating (0 to 100), Lambsquarters (lambsquarters; Rate 8 g/ha, POSTEMERGENCE): 70
Plant response rating (0 to 100), Lambsquarters (lambsquarters; Rate 8 g/ha, PREEMERGENCE): 95
Plant response rating (0 to 100), Lambsquarters (lambsquarters; Rate 31 g/ha, POSTEMERGENCE): 85
Plant response rating (0 to 100), Lambsquarters (lambsquarters; Rate 31 g/ha, PREEMERGENCE): 100
Plant response rating, Corn (corn; POSTEMERGENCE, Rate 50 g/ha): 4
Plant response rating, Corn (corn; PREEMERGENCE, Rate 50 g/ha): 1
Plant response rating (0 to 10 scale), Corn (corn; PREEMERGENCE, Rate 200 g/ha): 2
Plant response rating, Corn (corn; Rate 200 g/ha, POSTEMERGENCE): 5
Plant response rating, Velvetleaf (velvetleaf; POSTEMERGENCE): 100
Plant response rating (0 to 100), Velvetleaf (velvetleaf; POSTEMERGENCE, Rate 2 g/ha): 50
Plant response rating, Velvetleaf (velvetleaf; PREEMERGENCE): 100
Plant response rating (0 to 100), Velvetleaf (velvetleaf; PREEMERGENCE, Rate 2 g/ha): 0
Plant response rating (0 to 100), Velvetleaf (velvetleaf; Rate 8 g/ha, POSTEMERGENCE): 70
Plant response rating (0 to 100), Velvetleaf (velvetleaf; Rate 8 g/ha, PREEMERGENCE): 40
Plant response rating (0 to 100), Velvetleaf (velvetleaf; Rate 31 g/ha, POSTEMERGENCE): 90
Plant response rating (0 to 100), Velvetleaf (velvetleaf; Rate 31 g/ha, PREEMERGENCE): 95
Plant response rating, Sugar beet (sugar beet; POSTEMERGENCE, Rate 50 g/ha): 10
Plant response rating, Sugar beet (sugar beet; PREEMERGENCE, Rate 50 g/ha): 9
Plant response rating (0 to 10 scale), Sugar beet (sugar beet; PREEMERGENCE, Rate 200 g/ha): 10
Plant response rating, Sugar beet (sugar beet; Rate 200 g/ha, POSTEMERGENCE): 10
